# Data from ChEMBL document CHEMBL1141718, “Design, synthesis and antiproliferative activity of two new heteroannelated (-)-muricatacin mimics” (Bioorg Med Chem Lett, 2008).
# Assays:
# K562 = experiment: Antiproliferative activity against human K562 cells after 72 hrs by MTT assay; type: functional, cell-based; settings: K562, 72 h
# HL-60 = experiment: Antiproliferative activity against human HL60 cells after 72 hrs by MTT assay; type: functional, cell-based; settings: HL-60, 72 h
# Jurkat = experiment: Antiproliferative activity against human Jurkat cells after 72 hrs by MTT assay; type: functional, cell-based
# HeLa = experiment: Antiproliferative activity against human HeLa cells after 72 hrs by MTT assay; type: functional, cell-based
# MRC5 = experiment: Antiproliferative activity against human MRC5 cells after 72 hrs by MTT assay; type: cell-based; settings: MRC5, 72 h
IC50 (K562) [µM],IC50 (HL-60) [µM],IC50 (Jurkat) [µM],IC50 (HeLa) [µM],SMILES,IC50 (MRC5) [µM]
0.04,25.9,> 100,0.17,CCCCCCCCCCCC[C@@H](O)[C@H]1CCC(=O)O1,> 100
0.13,0.15,3.01,21.4,CCCCCCCCCCOC[C@@H](O)[C@H]1CCC(=O)O1,> 100
1.25,0.14,> 100,0.3,CCCCCCCCCCOC[C@@H]1O[C@H]2CC(=O)O[C@H]2[C@@H]1O,> 100
8.61,1.53,6.64,9.59,CCCCCCCCCOC[C@@H]1O[C@H]2CC(=O)O[C@H]2[C@@H]1O,> 100
